From patent EP0679645A1, “Pharmacologically active CNS pyridmidin compounds” (THE WELLCOME FOUNDATION LIMITED, priority 1990, dated 1991)

Columns and labels:
[1] = test system: veratrine-evoked release of glutamate; experiment: Inhibition of veratrine-evoked release of glutamate from rat brain slices; type: cell-based; details: P95 limits in brackets, read-out: IC₅₀(µM) Glutamate Release (P95 limits)
Method: (§1) Compounds according to the invention were tested for their effect on veratrine-evoked release of glutamate from rat brain slices according to the protocol described in Epilepsia 27(5): 490-497, 1986. The protocol for testing for inhibition of DHFR activity was a modification of that set out in Biochemical Pharmacology Vol. 20 pp 561-574, 1971.
(§2) The results are given in Table 1, the IC₅₀ being the concentration of compound to cause 50% inhibition of (a) veratrine-evoked release of glutamate and (b) of DHFR enzyme activity.

Rat Liver DHFR = target: T1, Rat Liver DHFR (Rattus norvegicus, UniProt Q920D2); experiment: Inhibition of rat liver DHFR enzyme activity; type: biochemical; details: P95 limits in brackets, read-out: IC₅₀(µM) Rat Liver DHFR (P95 limits)
T1 construct: from tissue; host or cells: rat liver
T1 sequence (Q920D2 1-187): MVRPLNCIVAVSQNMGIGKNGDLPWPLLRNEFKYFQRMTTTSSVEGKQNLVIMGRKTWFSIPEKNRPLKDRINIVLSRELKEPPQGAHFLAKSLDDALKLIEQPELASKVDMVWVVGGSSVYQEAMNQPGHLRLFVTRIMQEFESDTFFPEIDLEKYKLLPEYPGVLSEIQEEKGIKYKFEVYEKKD
Method: as §1, §2

Half-life in the rat = type: in vivo; details: statement in words

| Compound | IC50 [1] | IC50 (Rat Liver DHFR) | half-life in the rat (Half-life in the rat) |
| --- | --- | --- | --- |
| Nc1nc(N)c(-c2cc(Cl)cc(Cl)c2)c(C(F)(F)F)n1 [Compound 1, 2,4-Diamino-5-(3,5-dichlorophenyl)-6-trifluoromethyl pyrimidine] | < 10 µM | 4.59 µM | – |
| Cc1nc(N)nc(N)c1-c1c(Cl)ccc(Cl)c1Cl [Compound 2, 2,4-Diamino-6-methyl-5-(2,3,6-trichlorophenyl)pyrimidine] | < 10 µM | > 100 µM | – |
| Nc1ncc(-c2cc(Cl)c(N)c(Cl)c2Cl)c(N)n1 [Compound 3, 2,4-Diamino-5-(4-amino-2,3,5-trichlorophenyl)pyrimidine] | 2.5 µM | > 100 µM | – |
| Cc1nc(N2CCN(C)CC2)nc(N)c1-c1cc(Cl)c(Cl)c(Cl)c1 [Compound 4, 4-Amino-2-(4-methyl-1-piperazinyl)-6-methyl-5-(3,4,5-trichlorophenyl)pyrimidine] | < 10 µM | 100 µM | – |
| Cc1nc(N)nc(N)c1-c1cc(Cl)c(Cl)c(Cl)c1 [Compound 5, 2,4-Diamino-5-(3,4,5-trichlorophenyl)-6-methyl pyrimidine] | < 10 µM | < 100 µM | – |
| CCN(CC)c1ncc(-c2cc(Cl)cc(Cl)c2Cl)c(N)n1 [Compound 6, 4-Amino-2-diethylamino-5-(2,3,5-trichlorophenyl)pyrimidine] | 10 µM | > 100 µM | – |
| CC(C)Nc1ncc(-c2cc(Cl)cc(Cl)c2Cl)c(N)n1 [Compound 7, 4-Amino-2-(2-iso-propylamino)-5-(2,3,5-trichlorophenyl)pyrimidine] | < 10 µM | > 100 µM | – |
| CN1CCN(c2ncc(-c3cc(Cl)cc(Cl)c3)c(N)n2)CC1 [Compound 8, 4-Amino-5-(3,5-dichlorophenyl)-2-(4-methyl-1-piperazinyl)pyrimidine] | 0.27 µM | > 100 µM | long half-life |
| Nc1ncc(-c2cc(Cl)c(I)c(Cl)c2Cl)c(N)n1 [Compound 9, 2,4-Diamino-5-(4-iodo-2,3,5-trichlorophenyl)pyrimidine] | < 10 µM | > 100 µM | – |
| C[N+]1([O-])CCN(c2nc(N)c(-c3cc(Cl)cc(Cl)c3Cl)c(C(F)(F)F)n2)CC1 [Compound 10, 4-Amino-2-(4-methyl-4-oxide-1-piperazinyl)-5-(2,3,5-trichlorophenyl)-6-trifluoromethyl-pyrimidine] | > 10 µM | > 100 µM | – |
| COCc1nc(N2CCN(C)CC2)nc(N)c1-c1cc(Cl)cc(Cl)c1 [Compound 11, 4-Amino-5-(3,5-dichlorophenyl)-6-methoxymethyl-2-(4-methyl-1-piperazinyl)pyrimidine] | < 10 µM | > 100 µM | – |
| CN(C)S(=O)(=O)c1c(Cl)cc(-c2cnc(N)nc2N)c(Cl)c1Cl [Compound 12, 2,4-Diamino-5[4-(N',N'-dimethylsulphamoyl)-2,3,5-trichlorophenyl]pyrimidine] | < 10 µM | 13.8 µM | – |
| CN1CCN(c2nc(N)c(-c3cc(Cl)cc(Cl)c3)c(C(F)(F)F)n2)CC1 [Compound 14, 4-Amino-5-(3,5-dichlorophenyl)-2-(4-methyl-1-piperazinyl)-6-trifluoromethyl pyrimidine] | 0.137 µM | > 100 µM | – |
| Nc1ncc(-c2cc(Cl)c(Cl)c(Cl)c2Cl)c(N)n1 [Compound 15, 2,4-Diamino-5-(2,3,4,5-tetrachlorophenyl)pyrimidine] | < 10 µM | > 100 µM | – |
| C[C@@H]1CN(c2ncc(-c3cc(Cl)cc(Cl)c3Cl)c(N)n2)C[C@H](C)N1 [Compound 16, cis 4-Amino-2-(3,5-dimethyl-1-piperazinyl)-5-(2,3,5-trichlorophenyl)pyrimidine] | 10 µM | > 100 µM | – |
| CCCN1CCN(c2ncc(-c3cc(Cl)cc(Cl)c3Cl)c(N)n2)CC1 [Compound 17, 4-Amino-2-(4-n-propyl-1-piperazinyl)-5-(2,3,5-trichlorophenyl)pyrimidine] | 2.17 µM | > 100 µM | – |
| C[N+]1([O-])CCN(c2ncc(-c3cc(Cl)cc(Cl)c3Cl)c(N)n2)CC1 [Compound 18, 4-Amino-2-(4-methyl-4-oxide-1-piperazinyl)-5-(2,3,5-trichlorophenyl)pyrimidine] | > 10 µM | > 100 µM | – |
| Cc1nc(N)nc(N)c1-c1cc(Cl)cc(Cl)c1[N+](=O)[O-] [Compound 19, 2,4-Diamino-5-(3,5-dichloro-2-nitrophenyl)-6-methyl-pyrimidine] | < 10 µM | 5.56 µM | – |
| CN1CCN(c2nc(N)ncc2-c2cccc(Cl)c2Cl)CC1 [Compound 20, 2-Amino-5-(2,3-dichlorophenyl)-4-(4-methyl-1-piperazinyl)pyrimidine] | 10 µM | > 100 µM | – |
| Nc1ncc(-c2cccc(Cl)c2Cl)c(N2CCOCC2)n1 [Compound 21, 2-Amino-5-(2,3-dichlorophenyl)-4-(N-morpholino)pyrimidine] | 10 µM | > 100 µM | – |
| Nc1nc(N2CCN(Cc3ccccc3)CC2)ncc1-c1cc(Cl)cc(Cl)c1Cl [Compound 22, 4-Amino-2-(4-benzyl-1-piperazinyl)-5-(2,3,5-trichlorophenyl)pyrimidine] | > 10 µM | < 100 µM | – |
| Nc1ncc(-c2cc(Cl)c(N)c(Cl)c2)c(N)n1 [Compound 25, 2,4-Diamino-5-(3,5-dichloro-4-aminophenyl)pyrimidine] | > 10 µM | 0.034 µM | – |
| Cc1nc(N)nc(N)c1-c1cc(Cl)c(N)c(Cl)c1 [Compound 26, 2,4-Diamino-5-(3,5-dichloro-4-aminophenyl)-6-methyl pyrimidine] | < 10 µM | 0.034 µM | – |
| Nc1nc(N)c(-c2cc(Cl)c(N)c(Cl)c2)c(C(F)(F)F)n1 [Compound 27, 2,4-Diamino-5-(3,5-dichloro-4-aminophenyl)-6-trifluoromethyl pyrimidine] | 10 µM | 1.54 µM | – |
| CCCCN1CCN(c2ncc(-c3cc(Cl)cc(Cl)c3Cl)c(N)n2)CC1 [Compound 28, 4-Amino-2-(4-n-butyl-1-piperazinyl)-5-(2,3,5-trichlorophenyl)pyrimidine] | < 10 µM | > 100 µM | – |
| CCN1CCN(c2ncc(-c3cc(Cl)cc(Cl)c3Cl)c(N)n2)CC1 [Compound 29, 4-Amino-2-(4-ethyl-1-piperazinyl)-5-(2,3,5-trichlorophenyl)pyrimidine] | 2.56 µM | > 100 µM | – |
| CC(C)N1CCN(c2ncc(-c3cc(Cl)cc(Cl)c3Cl)c(N)n2)CC1 [Compound 30, 4-Amino-2-(4-isopropyl-1-piperazinyl)-5-(2,3,5-trichlorophenyl)pyrimidine] | < 10 µM | 100 µM | – |
| Nc1nc(N2CCN(C3CC3)CC2)ncc1-c1cc(Cl)cc(Cl)c1Cl [Compound 31, 4-Amino-2-(4-cyclopropyl-1-piperazinyl)-5-(2,3,5-trichlorophenyl)pyrimidine] | 10 µM | > 100 µM | – |
| CCN1CCN(c2nc(N)c(-c3cc(Cl)cc(Cl)c3)c(C(F)(F)F)n2)CC1 [Compound 32, 4-Amino-2-(4-ethyl-1-piperazinyl)-5-(3,5-dichlorophenyl)-6-trifluoromethyl pyrimidine] | 2.43 µM | > 100 µM | – |
